Measured values as given in US9796674B2, “Benzyl urea derivatives for activating TGF-beta signaling” (THE BOARD OF TRUSTEES OF THE LELAND STANFORD JUNIOR …, priority 2013, dated 2017).

Key:
TGF-β signaling = experiment: Bioluminescence in SBE-luc reporter mice; assay type: in vivo, mouse; details: brain/CNS bioluminescence
Protocol: The most promising compounds out of these screens were tested for their neuroprotective potential in B103 rat neuroblastoma cells and primary mouse neurons derived from E16 forebrains. Compounds were also tested for their capacity to reduce varicosities and tortuosity in primary mouse neurons. Accordingly, novel neuroprotectant small molecules have been identified that are as potent or better than TGF-β. Importantly, they fulfilled the critical neuroprotective properties in neuronal cell lines and primary hippocampal mouse neurons. • Compounds based on the 11H core: The present compositions and methods include salts of the active compounds and formulations, in particular pharmaceutically acceptable compositions for administration to an animal or human subject and containing active compounds. 129 analogs or derivatives of 11H were screened by a cell-based assay for their ability to increase TGF-β activity, i.e. to act as a TGF agonist. In particular, one compound (a) designated as SRI-011381 (381) was identified as especially advantageous, although active derivatives thereof are contemplated and have been identified. • Effects of TGF-β analogs in vitro: Some of the small-molecule TGF-β agonist compounds were tested for neuroprotection activity and toxicity in vitro (cell culture). In addition, the mechanism of action of the agonists was explored using cells with different genetic backgrounds with respect to protein of the […] signaling pathway. • Animal studies: Transgenic mice harboring the SBE-luc reporter gene were generated and used to test the derivatives of compound 11H in vivo. These “reporter mice” mice express SBE-luc (i.e., “the transgene”) in all cells of the body. Intraperitoneal injection of luciferin into SBE-luc-expressing mice produces bioluminescence generated by luciferase and photons penetrating the skull can be imaged using sensitive camera systems.
SBE-luciferase transgenic mice: Two-month old SBE-luciferase transgenic mice receive different concentrations of a test compound either s.q., ip., or orally by gavage. […] Following administration of the test or control compounds, mice are injected with luciferin ip. At, for example, 2, 8, and 16 hours following injection of luciferin, the mice are imaged to detect bioluminescence as described above. Brains may be harvested 16 hours following test compound injection, and may be divided sagittally. For example, one hemi-brain can be homogenized in luciferase assay buffer for measurement of reporter gene activation, while the other hemi-brain can be frozen at −70° C. for future study, including sectioning into individual brain regions

hippocampal neurons = experiment: Aβ-induced neuritic dystrophy in primary hippocampal neurons; assay type: cell-based, mouse; details: for average numbers of dystrophic neurites per neuron: 21-22 DIV, 5 μM Aβ, 48 h
Protocol: Primary hippocampal neurons isolated from E16 CF1 embryos were aged for 6-7 days or 21-22 days, then challenged with 5 μM oligomeric Aβ in the presence or absence of compounds, and assayed for neurotoxicity (cell survival as above) or neuritic dystrophy, respectively. For quantification of neuritic dystrophy, fixed cells were immune-stained with a MAP-2 monoclonal antibody to label dendrites.
Primary hippocampal neurons were isolated from E16 CF1 embryos. Twenty-four-well culture plates were coated with 10 μg/ml poly-L-lysine. Cells were seeded overnight at a density of 30,000 cells/well in DMEM/F-12 medium supplemented with 10% FBS and penicillin/streptomycin, and subsequently maintained in Neurobasal medium containing 2% B27 supplement. Cells were aged for 6-7 days or 21-22 days, then challenged with 5 μM Aβ in the presence or absence of compounds, and assayed for neurotoxicity or neuritic dystrophy, respectively. Cells were treated for 72 h for neurotoxicity assay and 48 h for neuritic dystrophy assay. At the end of treatment, an equal volume of 4% PFA was added, plates incubated at room temperature for 15 min and then washed three times with DPBS. Cells were kept in the last wash of DPBS at 4° C. until being counted or stained.
For quantification of neuritic dystrophy, fixed cells were immunostained with a MAP-2 monoclonal antibody (Sigma-Aldrich). […] MAP2 positive dendrites were observed under an inverted fluorescence microscope (Olympus). […] To quantify neurite curvature, an established method was modified for assessment of neurite curvature. Neurite tracks were digitized and approximated by a series of connected line segments using ImageJ (NIH). The angle of each segment was determined using a Sigmaplot macro, and the results were averaged to give the ‘mean differential curvature’. This parameter reflects the degree of neurite curvature with an increasing value indicating increased curvature. Neurite counting and quantification were performed in randomly selected fields (5 fields/well). All quantitative assessments were done by investigators blinded with respect to treatment conditions.

B103 neuroblastoma cells = experiment: B103 live/dead cell assay with Aβ; assay type: cell-based, rat; details: Aβ 24 h; added 2 h before Aβ
Protocol: SRI-11381 is neuroprotective in vitro: To determine if the TGF-β-inducing capacity of SRI-011381 would translate into biologically beneficial effects, its neuroprotective potential was tested in B103 rat neuroblastoma cells and primary mouse neurons derived from E16 forebrains. B103 neuroblastoma cells were cultured in 24-well plates and exposed to an oligomeric preparation of Aβ together with compounds or recombinant TGF-β.
FIGS. 3A-3H illustrate that SRI-011381 protects cultured neurons from Aβ toxicity. B103 neuroblastoma cells were incubated with Aβ for 24 h. The compounds and TGF-β were added 2 h before Aβ. Following incubations live and dead cells were assessed with calcein-acetoxymethylester (CAM) and SYTOX Orange (Invitrogen), respectively.
B103 neuroblastoma cells: B103 neuroblastoma cells were cultured in Dulbecco's modified Eagle's medium containing 10% fetal calf serum and 1% v/v penicillin/streptomycin (Invitrogen) in a 5% CO2: 95% air atmosphere. 10^4 cells/well were seeded onto 24 well plates and cultured for 24 h before Aβ was added. The compounds and TGF-β were added 2 h before Aβ. Following a 24 h incubation with Aβ, live and dead cells were assessed using calcein-acetoxymethylester (CAM) and SYTOX Orange (Invitrogen), respectively. AM is a membrane-permeable, fluorogenic esterase substrate that is hydrolyzed intracellularly to a green fluorescent product (calcein) in live cells. SYTOX Orange is a high-affinity nucleic acid stain that easily penetrates cells with compromised plasma membranes and yet will not cross the membranes of live cells. After incubation with SYTOX Orange, the nucleic acids of dead cells fluoresce bright orange. […] Five fields were randomly selected from each well and the cell numbers were analyzed by ImageJ (NIH) in a blinded fashion.

| Molecule | activation of TGF-β signaling in SBE-luc reporter mice (TGF-β signaling) | average numbers of dystrophic neurites per neuron (hippocampal neurons) | Aβ-induced increase in neurite curvature (mean differential curvature) (hippocampal neurons) | Aβ-induced cell death (B103 neuroblastoma cells) |
| --- | --- | --- | --- | --- |
| C/C(=C\c1ccccc1)CN(CC1CCNCC1)C(=O)NC1=CCC=CC1 [Compound 11H, reference compound] | penetrate into the CNS and activate TGF-β signaling | markedly reduced | – | – |
| TGF-β1: Transforming Growth Factor-β, recombinant cytokine used as comparator | – | markedly reduced | prevented | inhibit Aβ-induced cell death |
